The nature of data set [1]: Soil mobility (leaching through 4 cm top soil column). Format: physicochemical.
Procedure: The following soil mobility test was designed to establish the leaching of CVTMGMV and free CV in a soil column. […] One mL aliquots of CVTMGMV or free CV (the concentration was 100 mM normalized to the drug concentration) were applied atop of the soil columns, followed by 50 elution fractions of 300 μL DI water. Each collected elution fraction was centrifuged for 10 min at 12,000 rpm to precipitate remaining soil particles. The supernatant was subsequently analyzed by UV-vis spectroscopy (see above).
A soil mobility test was designed to establish the leaching of CVTMGMV and free CV in soil. Briefly, top soil was packed in a plastic column up to a height of 4 cm and saturated with deionized (DI) water. CVTMGMV or free CV was applied atop the soil columns, followed by DI water. Fractions were collected from the soil column, purified, and analyzed by UV-vis spectroscopy for the presence of TMGMV and CV. The λ260 (RNA) and λ280 (CP) wavelengths were monitored to quantify the amount of TMGMV that leached through the soil.
For data set [2] the following is noted: ref: PubChem CID 11057; cited from earlier work.
The nature of data set [3]: CV release profile from CVTMGMV, dialysis-based assay. The format is physicochemical. The settings on record: 10 mM KP buffer.
Procedure: The release of CV from TMGMV was evaluated using a dialysis-based assay.
Next, we evaluated the release profile of CV from the TMGMV nanocarrier. […] We tested the release profile at room temperature and 4° C. to evaluate two extreme upper soil thermal conditions. Sodium acetate (pH 5.2) and PBS (pH 7.4) buffer solutions were chosen to mimic the acidic and neutral soil environments, respectively. Diffusion of CV from CVTMGMV was also evaluated in KP (pH 7.8) buffer, which was used during loading and storing conditions of the sample. Free CV, in a concentration matched to the concentration and number loaded into TMGMV, was also dialyzed in KP buffer (pH 7.8) at 4° C. as a positive control.
A further data set concerns C. elegans. Put plainly: C. elegans motility assay in liquid culture. Format: in vivo, Caenorhabditis elegans. On the procedure:
OP50-1 E. coli and C. elegans strain N2 were provided by the Caenorhabditis Genetics Center (CGC) from the University of Minnesota, which is funded by NIH office of Research Infrastructure Programs P40 OD010440. Nematodes were cultured using 100 mm×15 mm sterile polystyrene Petri dishes (FB0875712, Fisher). […] Nematodes were then cultured on the OP50-1 E. coli plates at 22° C. […] OP50-1 E. coli pellet stocks were resuspended in S basal and added to the liquid culture to provide a food source to the nematodes.
Bioavailability of CVTMGMV and free CV to C. elegans was investigated in liquid culture (see above). 50 Nematodes were added to each well of a 24-well culture plate to a final volume of 1 mL. […] The percent of affected nematodes (sum of the nematodes on scale (2) and (3)) as a function of time and the effective concentration (EC50) were determined comparing free CV, TMGMV, and CVTMGMV.
Bioavailability of CVTMGMV and free CV in Caenorhabditis elegans (C. elegans) was investigated in liquid culture. C. elegans nematode motility was classified as either (1) totally immobilized, (2) impaired motility, or (3) […] nematodes. To illustrate the data that were collected, a series of snap shots of C. elegans incubated with no treatment, 10 μM of CV, and 10 μM of CVTMGMV were taken every second for 60 s. […] Five nematodes were selected in each treatment regime and pseudocolored to illustrate their motility.
At specific time points, nematodes were observed under a white light microscope, and the percent of affected nematodes (sum of the nematodes on scale (2) and (3)) was quantified as a function of time. The effective concentration (EC50), defined as the concentration of CV at which half of the maximum immobilization of C. elegans was reached, was determined for free CV and CVTMGMV (FIGS. 5D-G).

On to `CN(C)c1ccc(C(=C2C=CC(=[N+](C)C)C=C2)c2ccc(N(C)C)cc2)cc1` [CV, hexamethyl parparosaniline chloride], for which, in data set [1], the “eluted concentration of CV, times lower than CVTMGMV” value came out at 3.6 times. Besides, the Koc in data set [2] is given as 6.1×10^5. Besides, in data set [3] (pH 7.8, 4° C. (storing conditions)), the “time to 50% of CV released/dialyzed” value is recorded as at most 1.6 h. Besides, the “time to complete release of CV” value in data set [3] (pH 7.8, 4° C., dialysis over 72 h) was under 18 h. The “incubation time to maximum efficacy” value with C. elegans (1 μM) and in the data set with C. elegans (10 μM) was 6 h each time. Further, the nematodes paralyzed/dead result in the data set on C. elegans (1 μM, within the first hour) is on record as “about 15%”; in the data set on C. elegans (10 μM, within the first hour), “about 30%”; in the data set on C. elegans (100 μM, within 1 h, 22° C.), “Sixty”. For the same molecule, in the data set with C. elegans (10 μM, after 3 h of incubation), the “motility by time lapse imaging” value is recorded as “severe motility impairment”. In the data set on C. elegans (Caenorhabditis elegans, 6 h, read-out: maximum efficacy (nematodes affected)), the Emax at 1 µM was about 25%. Moreover, the EC50 in the data set on C. elegans (Caenorhabditis elegans, 24 h, read-out: EC50 (concentration of CV at half of maximum immobilization of C. elegans)) came out at 3.7 µM. Moreover, the Emax at 10 µM with C. elegans (Caenorhabditis elegans, read-out: maximum efficacy (nematodes affected)) was about 50%. Further, the “effect on nematode motility vs untreated population” value in the data set on C. elegans (doses lower than 1 μM) is listed as “no significant effect on nematode motility”.

These data come from US12599141B2, “Rod-shaped plant viral nanoparticles or virus-like particles for agricultural applications” (priority 2016, dated 2026).
